The structures appear in SMILES notation. pIC50, pKi: −log10 of the molar value. Activity calls are given as the source filed them. The rule behind the calls is not given here.

The target in series [1] is Sodium-dependent serotonin transporter (Rattus norvegicus) (UniProt P31652). The experiment in a line: Displacement of [3H]5-HT from of SERT in rat midbrain homogenates at 1 uM after 5 mins by scintillation counting. The series is classed as tissue-based.
For series [2], the target named is T1, 5-hydroxytryptamine receptor 7 (Homo sapiens, UniProt P34969). The experiment in a line: Displacement of [3H]5-CT from human 5HT7 receptor expressed in HEK293 cells after 1 hr by liquid scintillation counting. The series is classed as cell-based.
T1 sequence (P34969 whole entry): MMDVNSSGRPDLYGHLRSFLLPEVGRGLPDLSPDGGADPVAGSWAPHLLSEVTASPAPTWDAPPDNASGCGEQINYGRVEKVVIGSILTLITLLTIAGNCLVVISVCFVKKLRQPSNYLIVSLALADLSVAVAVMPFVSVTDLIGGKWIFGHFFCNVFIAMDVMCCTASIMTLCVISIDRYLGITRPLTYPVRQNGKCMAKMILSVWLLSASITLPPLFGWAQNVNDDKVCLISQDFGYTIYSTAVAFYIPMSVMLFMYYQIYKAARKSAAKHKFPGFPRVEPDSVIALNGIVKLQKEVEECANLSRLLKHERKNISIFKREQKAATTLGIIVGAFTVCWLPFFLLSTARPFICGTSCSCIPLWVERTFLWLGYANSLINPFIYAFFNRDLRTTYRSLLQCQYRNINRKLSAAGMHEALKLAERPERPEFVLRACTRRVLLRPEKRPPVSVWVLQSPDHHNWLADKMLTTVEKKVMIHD
In series [3] the target is Sodium-dependent serotonin transporter (Rattus norvegicus) (UniProt P31652). The experiment in a line: Displacement of [3H]5-HT from of SERT in rat midbrain homogenates at 10 uM after 5 mins by scintillation counting. The series is classed as tissue-based.
For series [4], the system named is Mus musculus. The series is described as follows: Antidepressant activity in albino mouse assessed as reduction of immobility time at 20 mg/kg, ip qd for 15 days by forced swimming test. Type of series: functional, organism-based. More on the design: dose 20 mg/kg.
Series [5] concerns Mus musculus. The experiment in a line: Antidepressant activity in albino mouse assessed as reduction of immobility time at 10 to 20 mg/kg, ip measured up to 4 mins by forced swimming test. Type of series: functional, organism-based.
For series [6], the system named is Mus musculus. The series is described as follows: Antidepressant activity in albino mouse assessed as reduction of immobility time at 10 mg/kg, ip qd for 15 days by forced swimming test. Type of series: functional, organism-based. More on the design: dose 10 mg/kg.
In series [7] the target is Sodium-dependent serotonin transporter (Rattus norvegicus, UniProt P31652). The series is described as follows: Displacement of [3H]5-HT from of SERT in rat midbrain homogenates after 5 mins by scintillation counting. The series is classed as tissue-based.
Sequence of Sodium-dependent serotonin transporter (P31652 whole entry): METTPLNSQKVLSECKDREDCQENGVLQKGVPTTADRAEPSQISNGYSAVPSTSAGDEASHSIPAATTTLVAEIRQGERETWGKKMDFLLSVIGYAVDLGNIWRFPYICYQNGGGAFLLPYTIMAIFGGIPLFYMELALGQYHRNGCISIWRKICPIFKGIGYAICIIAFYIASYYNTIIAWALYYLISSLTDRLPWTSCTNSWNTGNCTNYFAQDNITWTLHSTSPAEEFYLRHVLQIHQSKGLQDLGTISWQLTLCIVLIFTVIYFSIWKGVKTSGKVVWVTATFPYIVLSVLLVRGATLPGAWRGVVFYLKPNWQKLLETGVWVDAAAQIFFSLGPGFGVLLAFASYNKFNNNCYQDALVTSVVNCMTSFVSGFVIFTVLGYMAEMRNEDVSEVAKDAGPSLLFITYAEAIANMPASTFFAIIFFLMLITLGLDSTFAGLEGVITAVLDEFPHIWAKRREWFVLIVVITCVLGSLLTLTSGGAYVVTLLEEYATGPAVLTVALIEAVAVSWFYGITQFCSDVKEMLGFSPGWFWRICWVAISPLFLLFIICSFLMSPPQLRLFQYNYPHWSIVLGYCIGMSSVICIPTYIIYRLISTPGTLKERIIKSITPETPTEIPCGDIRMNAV
Series [8] deals with T2, 5-hydroxytryptamine receptor 1A (Homo sapiens, UniProt P08908).
T2 sequence (P08908 whole entry): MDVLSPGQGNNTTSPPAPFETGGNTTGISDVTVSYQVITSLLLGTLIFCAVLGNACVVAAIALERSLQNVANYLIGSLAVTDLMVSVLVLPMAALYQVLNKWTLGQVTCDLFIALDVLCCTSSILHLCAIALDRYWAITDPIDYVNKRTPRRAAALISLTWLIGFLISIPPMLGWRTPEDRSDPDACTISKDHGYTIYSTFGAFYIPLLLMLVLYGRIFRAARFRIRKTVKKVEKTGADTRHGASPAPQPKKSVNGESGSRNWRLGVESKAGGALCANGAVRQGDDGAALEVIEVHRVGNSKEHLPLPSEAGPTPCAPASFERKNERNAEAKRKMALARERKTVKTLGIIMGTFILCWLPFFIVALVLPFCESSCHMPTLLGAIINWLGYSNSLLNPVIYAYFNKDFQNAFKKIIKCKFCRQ
The series is described as follows: Binding affinity to 5HT1A receptor.

In series [9] the test system is Mus musculus. The series is described as follows: Toxicity in albino mouse assessed as increase in locomotor activity at 10 mg/kg, ip. The series is classed as organism-based. More on the design: dose 10 mg/kg, route intraperitoneal. The settings on record: in vivo.
The target in series [10] is T1, 5-hydroxytryptamine receptor 7. The series is described as follows: Partial agonist activity at human 5HT7 receptor expressed in HEK293 cells assessed as effect on cAMP production after 20 mins. The series is classed as functional, cell-based.
The target is the same in series [11]. The series is described as follows: Antagonist activity at human 5HT7 receptor expressed in HEK293 cells assessed as inhibition of serotonin-induced cAMP production after 20 mins. Type of series: functional, cell-based.
Series [12] shares this target. The series is described as follows: Partial antagonist activity at human 5HT7 receptor expressed in HEK293 cells assessed as inhibition of serotonin-induced cAMP production after 20 mins. The series is classed as functional, cell-based.
In series [13] the test system is Mus musculus. The experiment in a line: Antidepressant activity in albino mouse assessed as reduction of immobility time at 10 mg/kg, ip measured for 4 mins by forced swimming test. Type of series: functional, organism-based. More on the design: dose 10 mg/kg.
Series [14] deals with T1, 5-hydroxytryptamine receptor 7. The series is described as follows: Inverse agonist activity at human 5HT7 receptor expressed in HEK293 cells assessed as effect on cAMP production after 20 mins. The series is classed as functional, cell-based.

Sequence of Sodium-dependent serotonin transporter (Rattus norvegicus) (P31652 whole entry): as the sequence (P31652 whole entry) above

`OC(CCN1CCC(N2CCOCC2)CC1)c1csc2ccccc12` (stereo unspecified): the inhibition stood at 2.2% in [1] and 63.6% in series [3]. The molecule further showed a negative-log Ki (pKi) in series [2] of 4.56.
Turning to `O=C(CCN[C@@H]1CCN(c2ccc([N+](=O)[O-])cc2)C1)c1csc2ccccc12`, the inhibition amounted to 9% in [1] and 45.4% in series [3]. The pKi in series [2] is below 4.00.
On to `CNCCC(Oc1ccc(C(F)(F)F)cc1)c1ccccc1` (stereo unspecified), for which the outcome in series [4] was Active. Moreover, the result in series [5] was inactive.
Turning to `N#Cc1ccc(N2CCN(CCC(=O)c3csc4ccccc34)CC2)cc1`, the inhibition in series [1] stood at 5.4%; in series [3] it was 38.2%. In addition, in series [2], the negative-log Ki (pKi) is below 4.00.
With `O=C(CCN[C@H]1CCN(c2ccc([N+](=O)[O-])cc2C(F)(F)F)C1)c1csc2ccccc12`, the inhibition in series [1] is 28.4%; in [3], 97.9%. The pKi in [2] is below 4.00; in series [8], 7.30. In [6], the result was Active. This molecule also gave a negative logarithm of the IC50 (pIC50) in series [7] of 5.15. Also, in series [9], the Activity result is given as “Non-toxic”.
For `O=C(CCN1CC[C@@H](Nc2ccc([N+](=O)[O-])cc2)C1)c1csc2ccccc12`, the values for the inhibition in [1] and in [3] were 17.9% and 76.5%, respectively. Besides, the negative-log Ki (pKi) in [2] was below 4.00.
Take `O=[N+]([O-])c1ccc(N2CCCN(CCC(O)c3csc4ccccc34)CC2)c(C(F)(F)F)c1` (stereo unspecified): in series [10], the result was Active. Also, the inhibition was found to be 0% in series [1] and 36% in [3]. The same molecule gave a pKi in series [2] of 5.06.
Take `O=[N+]([O-])c1ccc(N2CCC(NCCC(O)c3csc4ccccc34)C2)cc1` (single isomer, unassigned): the inhibition in series [1] came out at 28.1%; in series [3], 49.2%. Also, the negative logarithm of the Ki (pKi) in series [2] is below 4.00.
In the case of `N#Cc1ccc(N2CCCN(CCC(=O)c3csc4ccccc34)CC2)cc1`, the inhibition in [1] came out at 1.2%; in series [3] it was 63.1%. In series [2], this molecule had a pKi of 4.82.
With `O=C(CCNC1CCN(c2ccc([N+](=O)[O-])cc2)CC1)c1csc2ccc(F)cc12`, the result in series [11] and in [12] was Active. In addition, the inhibition in series [1] was 3.1%; in [3] it was 35%. This molecule also showed a pKi in series [2] of 5.32.
As to `N#Cc1ccc(N2CCC(NCCC(=O)c3csc4ccccc34)CC2)cc1`, the result in series [10] was Active. In [2], the pKi was 5.14.
In the case of `O=C(CCN1CCN(c2ccc([N+](=O)[O-])cc2)CC1)c1csc2ccccc12`, the figures for the inhibition in [1] and in [3] were 2.1% and 33.2%, respectively. In series [2], the pKi was below 4.00.
As for `N#Cc1ccc(N2CCCN(CCC(O)c3csc4ccccc34)CC2)cc1` (stereo unspecified), the result in series [11], in series [13], in series [6] and in [14] was Active. In addition, the inhibition in [1] was 19.7%; in series [3] it was 36.7%. Moreover, the results for the negative logarithm of the Ki (pKi) in series [2] and in series [8] were 6.58 and 5.50, respectively. Besides, in [7], the negative logarithm of the IC50 (pIC50) is 4.24. Besides, the Activity result in series [9] was “Non-toxic”.
On to `O=C(CCN1CCN(c2ccc([N+](=O)[O-])cc2)CC1)c1csc2ccc(F)cc12`, for which the inhibition was 0% in series [1] and 16.3% in series [3]. Also, the negative-log Ki (pKi) in series [2] was 4.04.
The corresponding values for `O=C(CCN1CCC(N2CCOCC2)CC1)c1csc2ccccc12` are 11.1%, 30.2% and 4.27.
As to `N#Cc1ccc(N2CCN(CCC(O)c3csc4ccccc34)CC2)cc1` (stereo unspecified), the outcome in series [11] and in series [14] was Active. Moreover, the inhibition in [1] turned out to be 43.5%; in series [3] it was 57.7%. This molecule also had a negative-log Ki (pKi) in series [2] of 4.90.
Regarding `O=C(CCN[C@H]1CCN(c2ccc([N+](=O)[O-])cc2)C1)c1csc2ccccc12`, the figures for the inhibition in [1] and in [3] were 0% and 36.6%, respectively. The same molecule showed a pKi in series [2] below 4.00.
With `N#Cc1ccc(N2CCC(NCCC(O)c3csc4ccccc34)CC2)cc1` (stereo unspecified), the inhibition in series [1] stood at 53.1%; in [3], 80.4%. For the same molecule, the results for the negative-log Ki (pKi) in [2] and in [8] were 5.78 and 6.80, respectively. For the same molecule, the result in series [6] and in series [14] was Active. Besides, the pIC50 in series [7] was 5.44. The Activity entry in series [9] is recorded as “Non-toxic”.
With `Nc1ccc(N2CCN(CCC(=O)c3csc4ccccc34)CC2)cc1`, the pKi in series [2] is 4.85.
As for `N#Cc1ccc(N2CC[C@H](NCCC(=O)c3csc4ccccc34)C2)cc1`, the inhibition in series [1] was found to be 0%; in series [3], 45.6%. In series [2], this molecule had a negative logarithm of the Ki (pKi) below 4.00.
In turn, `O=C(CCN1CCCN(c2ccc([N+](=O)[O-])cc2C(F)(F)F)CC1)c1csc2ccccc12` showed a pKi in series [2] below 4.00.
For the molecule `O=C(CCN1CCCN(c2cnc3ccccc3n2)CC1)c1csc2ccccc12`, the inhibition in series [1] amounted to 23.8%; in [3], 58%. In addition, in series [2], the pKi is 5.02.
As to `O=C(CCNC1CCN(c2ccc([N+](=O)[O-])cc2C(F)(F)F)CC1)c1csc2ccccc12`, the outcome in series [10] and in series [11] was Active. The values for the inhibition in series [1] and in series [3] were 26.9% and 62.8%, respectively. In series [2], the pKi is 5.04.

The record behind these values is ChEMBL document CHEMBL1781929, “Novel benzo[b]thiophene derivatives as new potential antidepressants with rapid onset of action” (J Med Chem, 2011).
